Test results published in patent publication US20200247855A1, “THERAPY AND DIAGNOSTICS” (OXFORD UNIVERSITY INNOVATION LIMITED, priority 2017, published 2020).
No end group written: not given here.

Columns and labels:
Assay type in all cases: binding
[1] = target: T1, His-tagged P672-biotinylated CCL2 interaction (Homo sapiens, UniProt P13500); assay: AlphaScreen disruption of P672:chemokine interaction
T1 construct: host or cells: P672: HEK293F (in-house); biotinylated CCL2: not described
Protocol: (§1) B-D. Effect of indicated peptides at a concentration of 100 μM on a His-tagged P672-biotinylated CCL8, CCL2 or CCL3 interaction respectively using an AlphaScreen assay. In each panel. […] Data are presented as mean±s.e.m. of three independent experiments, shown as individual data points.
(§2) Data are shown as mean of two technical replicates. Curves were fitted with 4 parameters to estimate IC50.
(§3) The binding of these peptides to CCL8 was assayed by examining their ability to disrupt the P672:CCL8 interaction using an AlphaScreen assay (FIG. 20E, H). […] BK1 derivatives were tested for their ability to inhibit P672 interactions with CCL2 and CCL3 using AlphaScreen (FIG. 20 F, G, I, J).
(§4) AlphaScreen® Histidine detection kit was purchased from PerkinElmer (6760619M lot: 2457886) and the assay was set up in white bottom Proxiplate™ 384 Plus microplates (PerkinElmer) following the manufacturer's instructions. The assay buffer used was 50 mM HEPES, 150 mM NaCl, 0.1% BSA, 0.01% Tween20, 1% DMSO, pH 7.5 and the final volume in each well was 20 μL. Briefly, biotinylated chemokine (recombinant, final concentration 1.25 nM (CCL8), 5 nM (CCL2) and 2.5 nM (CCL3)) was pre-incubated at room temperature for 15 min with different concentrations of each peptide. His-tagged P672 (final concentration 2.5 nM (CCL8), 5 nM (CCL2) and 1.25 nM (CCL3)) was then added to each well and the plate was incubated at room temperature for 30 min. Finally, acceptor and donor beads were added as a 1:1 suspension in buffer to each well and the plate was further incubated at RT for 1 h. Data was obtained by reading the plate using a Pherastar FSX plate reader (excitation 680 nm, emission 570 nm) and was analysed using GraphPad Prism.

[2] = target: T2, His-tagged P672-biotinylated CCL3 interaction (Homo sapiens, UniProt P10147); assay: as above; conditions: AlphaScreen dose-response
T2 construct: host or cells: P672: HEK293F (in-house); biotinylated CCL3: not described
T2 sequence (P10147 24-92): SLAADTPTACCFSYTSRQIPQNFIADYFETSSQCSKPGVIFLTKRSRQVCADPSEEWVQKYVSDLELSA
Protocol: as §1, §2, §3, §4

[3] = target: T3, CCL8 (Homo sapiens, UniProt P80075); assay: Fluorescence polarisation (anisotropy) assay; conditions: fluorescence polarisation displacement assay
T3 construct: SUMO (in-house protein only) (cleaved yes); made in house; host or cells: Escherichia coli RosettaGami 2 (DE3)
T3 sequence (P80075 24-99): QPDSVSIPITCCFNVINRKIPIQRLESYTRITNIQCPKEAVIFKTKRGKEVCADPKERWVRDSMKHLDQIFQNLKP

T1 sequence (P13500 24-99): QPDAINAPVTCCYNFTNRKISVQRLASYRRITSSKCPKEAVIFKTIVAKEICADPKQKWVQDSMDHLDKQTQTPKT

For EDEDYEDFFKPVTAYF-NH2 [BK1.1], the “Inhibition of P672 interaction with CCL2 (BK1 derivatives)” value ([1]; AlphaScreen dose-response) was “did not inhibit”, the “Disruption of the P672-CCL2 interaction” value ([1]; AlphaScreen, peptide 100 μM) was “disrupted” and the “Inhibition of P672 interaction with CCL3 (BK1 derivatives)” value [2] was “did not inhibit”. For the same substance, the “Displacement of FITC-labelled peptide from CCL8 by unlabelled peptide” value [3] was “indicate its binding” and the “Displacement of FITC-labelled peptide from CCL8 by unlabelled peptide” value ([3]; listed as P672_PEP) was “able to displace labelled peptide bound to chemokine”.
